Reference: patent publication US20200008426A1, “ACTIVE COMPOUND COMBINATIONS” (BAYER AKTIENGESELLSCHAFT, priority 2017, published 2020)

Experiment: LogP by HPLC on reversed phase columns (EEC directive 79/831 Annex V.A8)
Conditions: Table 2, formula (V), LC-UV; for LogP [a]: acidic range, 0.1% formic acid in water and acetonitrile; for LogP [b]: neutral range, 0.001 molar ammonium acetate in water and acetonitrile
Description: Measurement of LogP values was performed according to EEC directive 79/831 Annex V.A8 by HPLC (High Performance Liquid Chromatography) on reversed phase columns with the following methods:
Lambda-max-values were determined using UV-spectra from 200 nm to 400 nm and the peak values of the chromatographic signals.

Structure (SMILES) | LogP [a] | LogP [b]
CC(=O)c1ccc(Oc2ccc(Cl)cc2)nc1OC(F)(F)F [V.06] | 4.37^[a] | 
CC(=O)c1cnc(Oc2ccc(Cl)cc2F)cc1C(F)(F)F [V.07] | 4.09^[a] | 
CC(=O)c1cnc(Oc2ccccc2)cc1Cl [V.08] | 2.94 | 2.86
CC(=O)c1cnc(Oc2ccc(Cl)cc2)cc1Cl [V.09] | 3.52 | 3.42
CC(=O)c1ccc(Oc2ccc(Cl)cc2)nc1Cl [V.10] | 3.47 | 3.36
CC(=O)c1ccc(Oc2ccc(Cl)c(Cl)c2)nc1Cl [V.11] | 4.10^[a] | 
CC(=O)c1ccc(Oc2ccc(F)cc2)nc1Cl [V.12] | 3.11^[a] | 
CC(=O)c1ccc(Oc2ccc(C(F)F)cc2)nc1Cl [V.14] | 3.15^[a] | 
CC(=O)c1cnc(Oc2ccc(OC(F)(F)F)cc2)cc1C(F)(F)F [V.15] | 4.20^[a] | 
CC(=O)c1ccc(Oc2ccc(S(F)(F)(F)(F)F)cc2)nc1C(F)(F)F [V.16] | 4.09^[a] | 
CC(=O)c1ccc(Oc2ccc(C(F)(F)F)cc2)nc1C(F)(F)F [V.17] | 3.96^[a] | 
CC(=O)c1cnc(Oc2ccc(C(F)(F)F)cc2)cc1Cl [V.18] | 3.87^[a] | 
CC(=O)c1cnc(Oc2ccc(Cl)cc2)cc1C(C)=O [V.19] | 3.11^[a] | 
CC(=O)c1ccc(Oc2ccc(Br)cc2)nc1C(F)(F)F [V.20] | 3.85^[a] | 
CC(=O)c1ccc(Oc2ccccc2)nc1Cl [V.21] | 2.94 | 2.85
CC(=O)c1cnc(Oc2ccc(Cl)cc2)cc1Cl [V.22] | 3.51^[a] | 
CC(=O)c1ccc(Oc2ccc(Cl)cc2)nc1F [V.24] | 3.51^[a] | 
CC(=O)c1cnc(Oc2ccc(C(F)(F)F)cc2)cc1C(F)(F)F [V.25] | 4.04^[a] | 
CC(=O)c1ccc(Oc2ccc(Cl)cc2)nc1Cl [V.26] | 3.45^[a] | 
CC(=O)c1cnc(Oc2ccc(Br)cc2)cc1C(F)(F)F [V.27] | 3.99^[a] | 
CC(=O)c1ccc(Oc2ccc(OC(F)(F)F)cc2)nc1Cl [V.28] | 3.89^[a] | 
COc1ccc(Oc2ccc(C(C)=O)c(Cl)n2)c(Cl)c1 [V.29] | 3.44^[a] | 
CC(=O)c1ccc(Oc2ccc(S(F)(F)(F)(F)F)cc2)nc1Cl [V.30] | 3.99^[a] | 
CC(=O)c1ccc(Oc2c(F)cc(Cl)cc2F)nc1C(F)(F)F [V.31] | 4.06^[a] | 
CC(=O)c1ccc(Oc2ccc(C(F)F)cc2)nc1C(F)(F)F [V.32] | 3.26^[a] | 
O=C(c1ccc(Oc2ccc(C(F)(F)F)cc2)nc1C(F)(F)F)C1CC1 [V.39] | 4.37^[a] | 
O=Cc1ccc(Oc2ccc(C(=O)C3CC3)c(C(F)(F)F)n2)cc1 [V.42] | 3.21^[a] | 
O=C(c1ccc(Oc2ccc(S(F)(F)(F)(F)F)cc2)nc1C(F)(F)F)C1CC1 [V.43] | 4.67^[a] | 
